Source: paper PMC9252148 (IUCrJ, 2022)

Experiments:
LCMV NP-exo = target: T1, LCMV NP-exo (Lymphocytic choriomeningitis virus (strain Armstrong), UniProt P09992)
T1 construct: gene N

MOPV NP-exo = target: T2, MOPV NP-exo (Mammarenavirus mopeiaense, UniProt P19239); conditions: 5 mM MnCl2, pH 8.0, 310 K, 5 min, 0.25 µM enzyme, 1.5 µM HP4 RNA; Mn2+-dependent; acts by metal-ion chelation
T2 construct: gene N
T2 sequence (P19239 365-570 limits assumed): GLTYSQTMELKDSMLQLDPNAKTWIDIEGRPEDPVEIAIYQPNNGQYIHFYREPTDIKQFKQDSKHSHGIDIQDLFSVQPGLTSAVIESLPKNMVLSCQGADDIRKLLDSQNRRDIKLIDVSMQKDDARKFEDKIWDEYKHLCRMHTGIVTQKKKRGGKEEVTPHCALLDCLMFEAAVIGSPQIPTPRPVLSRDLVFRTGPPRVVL

T1 sequence (P09992 357-558 limits assumed): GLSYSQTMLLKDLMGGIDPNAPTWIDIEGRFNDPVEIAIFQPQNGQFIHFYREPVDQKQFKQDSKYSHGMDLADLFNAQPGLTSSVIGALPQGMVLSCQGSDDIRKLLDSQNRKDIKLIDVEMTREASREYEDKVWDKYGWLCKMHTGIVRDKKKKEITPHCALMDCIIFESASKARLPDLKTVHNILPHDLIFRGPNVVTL

alendronate
IC50 (LCMV NP-exo): 68.6 ± 4.2 µM | IC50 (MOPV NP-exo): 65.9 ± 1.7 µM
